Reference: patent publication US20140274971A1, “Systems and Methods of Using Chemically Bound Antibiotics Activated by Infections” (Osteoceramics, Inc., priority 2013, published 2014)
Read-outs that look alike come from different tables or passages of the source.

Assays:
bacterial growth = assay: Mueller-Hinton agar cultures of concretes made of tetracycline-treated grains; format: cell-based; settings: concretes of treated grains with gypsum, calcium aluminate or zinc phosphate cement; cured 24 hours
Experimental: These were separated into sizes with sieves, to produce a range of size fractions; 12-20 mesh, 20-35 mesh, 35-65 mesh, 65-270 mesh, and minus 325 mesh. […] The tetracycline bonds to the tricalcium component of the grain surfaces. […] So the tricalcium phosphate phase is interconnected throughout the volume and is exposed at 50% of the surface area. […] The surface area was calculated assuming the particles were spheres of the median radius for the sieve fraction. […] The grains changed from white to orange as a result of the treatment. These grains were used to make cements for filling bone voids, combining 65% of one fraction with 15% of the second, finer, fraction in the series, 5% of the −325 mesh fraction and 15% of cement. Different cements were used, including gypsum, calcium aluminate and zinc phosphate cements. These concretes set in 5 to 10 minutes in a wet environment. After curing 24 hours at 100% humidity and 37° C., disks of these concretes were tested in Mueller-Hinton agar cultures to determine if they would inhibit bacterial growth. […] Thus the concrete prostheses have the properties needed to treat bone voids. Note that the size of the coarse fraction 12-20, […] or 35-65 will depend on the maximum particle size that must not exceed the maximum size of the void to be filled.

selected bacterium = format: cell-based; settings: for effectiveness of other tetracyclines (in words): other experiments, bound to implant
From the text: They were rinsed with deionized water and dried. […] The solutions were saved for bioactivity testing.

Corynebacterium spp. = assay: Kirby-Bauer method, tetracycline treated disks, periodontal bacteria; format: cell-based; settings: disks treated with 0.1 mg/ml, 1 mg/ml and 10 mg/ml; 10^4 to 10^6 levels
From the text: (§1) Because tooth roots are in an anaerobic environment, bacteria were selected from those commonly encountered in periodontal disease for evaluation by the Kirby-Bauer method. They were ATCCJ177i: Bacillus cereus, Corynebacterium spp., Esccherichia coli, Pasteurella multocida and Staphylococcus spp. Each was doped on Mueller-Hinton agar at 10^4 to 10^6 levels.

Bacillus cereus = assay: as above; format: cell-based; settings: disks treated with 0.1 mg/ml, 1 mg/ml and 10 mg/ml; 10^4 to 10^6 levels
From the text: as §1

Staphylococcus spp. = assay: as above; format: cell-based; settings: disks treated with 0.1 mg/ml, 1 mg/ml and 10 mg/ml; 10^4 to 10^6 levels
From the text: as §1

Pasteurella multocida = assay: as above; format: cell-based; settings: disks treated with 0.1 mg/ml, 1 mg/ml and 10 mg/ml; 10^4 to 10^6 levels
From the text: as §1

Esccherichia coli = assay: as above; format: cell-based; settings: disks treated with 0.1 mg/ml, 1 mg/ml and 10 mg/ml; 10^4 to 10^6 levels
From the text: as §1

Pseudo. A. = format: cell-based, Psuedomonus aeruginosa
From the text: (§2) The setting solution is aqueous calcium chloride.

Staph. A. = format: cell-based, Staphylococcus aureus
From the text: as §2

staphylococcus aureus = assay: Repeated Kirby-Bauer test, ciprofloxacin-doped cement (Example 4); format: cell-based
From the text: A Kirby-Bauer test using staphylococcus aureus was repeated for ciprofloxacin-doped cement with more detail. All specimens, and the paper control, were 6 mm diameter.

[1] = 10^−2 gr/gram of calcium aluminate, 1 Day
[2] = 10^−2 gr/gram of calcium aluminate, 1 Hour
[3] = 10^−2 gr/gram of calcium aluminate, 1 Week
[4] = 10^−2 grams ciprofloxacin per gram of calcium aluminate, one week
[5] = 10^−3 gr/gram of calcium aluminate, 1 Day
[6] = 10^−3 gr/gram of calcium aluminate, 1 Hour
[7] = 10^−3 gr/gram of calcium aluminate, 1 Week
[8] = 10^−4 gr/gram of calcium aluminate, 1 Day
[9] = 10^−4 gr/gram of calcium aluminate, 1 Week
[10] = 10^−4 gr/gram of calcium aluminate, 1 Hour

## CN(C)[C@@H]1C(=O)C(C(N)=O)=C(O)[C@@]2(O)C(=O)C3=C(O)c4c(O)cccc4[C@@](C)(O)[C@H]3C[C@@H]12 [tetracycline, Tetracycline]
Bacterial growth
  inhibition of bacterial growth by concrete disks (in words): perform in the same way as the disks in example one
Selected bacterium; disks made with concentrations of 1 and 10 mg/ml
  inhibition zones (in words): effective in creating large inhibition zones
Corynebacterium spp.
  bacterial growth adjacent to the disks (in words): prevented
Bacillus cereus
  bacterial growth adjacent to the disks (in words): prevented
Staphylococcus spp.
  bacterial growth adjacent to the disks (in words): prevented
Pasteurella multocida
  bacterial growth adjacent to the disks (in words): prevented
Esccherichia coli
  bacterial growth adjacent to the disks (in words): prevented

## O=C(O)c1cn(C2CC2)c2cc(N3CCNCC3)c(F)cc2c1=O [ciprofloxacin, Ciprofloxacin]
E. Coli; [1]
  Kirby-Bauer Inhibition Zone: 37 mm
E. Coli; [2]
  Kirby-Bauer Inhibition Zone: 49 mm
E. Coli; [3]
  Kirby-Bauer Inhibition Zone: 44 mm
E. Coli; [4]
  inhibition (in words): effective for one week
E. Coli; [5]
  Kirby-Bauer Inhibition Zone: 27 mm
E. Coli; [6]
  Kirby-Bauer Inhibition Zone: 42 mm
E. Coli; [7]
  Kirby-Bauer Inhibition Zone: 33 mm
E. Coli; [8]
  Kirby-Bauer Inhibition Zone: 22 mm
E. Coli; 10^−4 gr/gram of calcium aluminate, 1 Hour after setting, saline 37° C.
  Kirby-Bauer Inhibition Zone: 34 mm
E. Coli; [9]
  Kirby-Bauer Inhibition Zone: 23 mm
Pseudo. A.; [1]
  Kirby-Bauer Inhibition Zone: 35 mm
Pseudo. A.; [2]
  Kirby-Bauer Inhibition Zone: 44 mm
Pseudo. A.; [3]
  Kirby-Bauer Inhibition Zone: 39 mm
Pseudo. A.; [4]
  inhibition (in words): effective for one week
Pseudo. A.; [5]
  Kirby-Bauer Inhibition Zone: 19 mm
Pseudo. A.; [6]
  Kirby-Bauer Inhibition Zone: 34 mm
Pseudo. A.; [7]
  Kirby-Bauer Inhibition Zone: 21 mm
Pseudo. A.; [8]
  Kirby-Bauer Inhibition Zone: 0 mm
Pseudo. A.; [10]
  Kirby-Bauer Inhibition Zone: 21 mm
Pseudo. A.; [9]
  Kirby-Bauer Inhibition Zone: 0 mm
Staph. A.; [1]
  Kirby-Bauer Inhibition Zone: 29 mm
Staph. A.; [2]
  Kirby-Bauer Inhibition Zone: 34 mm
Staph. A.; [3]
  Kirby-Bauer Inhibition Zone: 32 mm
Staph. A.; [4]
  inhibition (in words): effective for one week
Staph. A.; [5]
  Kirby-Bauer Inhibition Zone: 5 mm
Staph. A.; [6]
  Kirby-Bauer Inhibition Zone: 27 mm
Staph. A.; [7]
  Kirby-Bauer Inhibition Zone: 21 mm
Staph. A.; [8]
  Kirby-Bauer Inhibition Zone: 0 mm
Staph. A.; [10]
  Kirby-Bauer Inhibition Zone: 7 mm
Staph. A.; [9]
  Kirby-Bauer Inhibition Zone: 0 mm
Staphylococcus aureus; 10^−2 g/g concentration
  zone compared with control disk (in words): equivalent to the control disk
Staphylococcus aureus; 10^−3 g/g
  zone compared with control disk (in words): somewhat less
Staphylococcus aureus; rinsed vs not rinsed
  effect of rinsing the pellet to remove surface antibiotic: had no effect

## CN(C)[C@@H]1C(O)=C(C(N)=O)C(=O)[C@@]2(O)C(O)=C3C(=O)c4c(O)cccc4[C@@](C)(O)[C@H]3[C@H](O)[C@@H]12 [oxytetracycline]
Selected bacterium
  effectiveness of other tetracyclines (in words): effective

## CN(C)[C@@H]1C(O)=C(C(N)=O)C(=O)[C@@]2(O)C(O)=C3C(=O)c4c(O)ccc(Cl)c4[C@@H](O)[C@H]3C[C@@H]12 [democlotetracycline]
Selected bacterium
  effectiveness of other tetracyclines (in words): effective
